Assay: variable humidity x-ray powder diffraction (VH-XRPD), humidity effect on XRPD pattern
Format: physicochemical
Conditions: FIG. 7
Procedure: X-ray Powder Diffraction patterns were collected on a Bruker AXS D8 diffractometer using Cu Kα1 radiation (40 kV, 40 mA), θ-2θ goniometer, and divergence of 10 mm slits, a Ge monochromator and LynxEye detector. The representative PXRD pattern was collected under ambient condition.
Irinotecan free base (119 g) and dichloromethane (1600 mL, 13.5 vol) were added to a 3 L flask at room temperature (20-30° C.) to obtain a first suspension mixture. Water (120 mL, 1 vol) and 5% sodium bicarbonate (480 mL, 4 vol) were added to the first mixture at room temperature. The suspension was filtered, and then the phases were allowed to separate, and an organic layer was saved. Water (600 mL, 5 vol) was added, and the phases were allowed to separate, and the organic layer was saved. The organic layer was concentrated to about 430 mL (3.6 vol). Ethyl acetate (1440 mL, 12 vol) was added to the concentrated organic layer at 25-35° C. to obtain a second mixture. The second mixture was concentrated to about 1665 mL (14 vol) then cooled to 15-25° C. to obtain a slurry mixture. The slurry mixture was filtered, and a wet cake was obtained and dried under the nitrogen to afford irinotecan free base form S3 (98.04 g). The Form S3 was studied by using variable humidity x-ray powder diffraction (VH-XRPD) to investigate the humidity effect on XRPD pattern (FIG. 7). […] The changes in diffraction peaks are reversible with the humidity being changed.

humidity effect on XRPD pattern (change in diffraction peaks) (sample exposed at higher than 60% RH): the diffraction peaks changed | reversibility of changes in diffraction peaks (with the humidity being changed): reversible
Compound: CCc1c2c(nc3ccc(OC(=O)N4CCC(N5CCCCC5)CC4)cc13)-c1cc3c(c(=O)n1C2)COC(=O)[C@]3(O)CC [Form S3, [1,4′-bipiperidine]-1′-carboxylic acid, (4S)-4,11-diethyl-3,4,12,14-tetrahydro-4-hydroxy-3,14-dioxo-1H-pyrano[3′,4′:6,7]indolizino[1,2-b]quinolin-9-yl ester]
humidity effect on XRPD pattern (change in diffraction peaks) (sample exposed at 5-40% RH): no significant change in diffraction peaks was observed
